Reference: publication PMC11768359, “2-Aminothiophene Derivatives—New Drug Candidates Against Leishmaniasis: Drug Design, Synthesis, Pharmacomodulation, and Antileishmanial Activity” (Pharmaceuticals, 2025)
“And” between values parts separate entries of the source, which are not always exact repeats. Equal values may be shown once. Read-outs that look alike come from different tables or passages of the source.

Columns and labels:
[1] = tested on: promastigotes of L. amazonensis; experiment: Growth inhibition of promastigote forms of L. amazonensis (MTT); format: cell-based, Leishmania amazonensis; conditions: 72 h, 26 °C
Description: (§1) The in vitro tests utilized Leishmania amazonensis parasites (IFLA/BR/67/PH8). These leishmania cell lines were obtained from Oswaldo Cruz Foundation (FIOCRUZ)/Brazil. The promastigote forms were cultivated in Schneider’s insect medium at 26 °C in a biological oxygen demand (BOD) incubator. Schneider’s insect medium was supplemented with 20% fetal bovine serum (FBS) and 1% penicillin (100 U/mL) and streptomycin (µg/mL) (complete Schneider). Next, we differentiated them from promastigote forms by changing the conditions to Schneider’s insect medium supplemented with 5% FBS, pH 4.6, and a temperature of 32 °C to obtain axenic amastigote forms of L. amazonensis. Meanwhile, RAW 264.7 macrophages were cultured in […] cell culture flasks using DMEM medium supplemented with 10% FBS, 1% penicillin 100 U/mL, and 100 μg/mL streptomycin (complete DMEM) and incubated at 37 °C and 5% CO2.
Parasite growth inhibition was evaluated using the methodology described by Rodrigues et al. (2015). Cultures of logarithmically growing promastigote and axenic amastigote forms (1 × 10^6 parasites/mL) were incubated in 96-well plates containing 100 µL of supplemented Schneider’s medium in triplicate. Serial concentrations of 2-amino-thiophene and 2-amino-selenophene derivatives (10.00–0.156 μM) and the reference drugs meglumine antimoniate (500–40,000 μg/mL), amphoterecinB (0.1–2 μM), and pentamidine (3.12–100 µM) were added. BNP was used as a negative control. The cultures were incubated in a biological oxygen demand oven (model Eletrolab EL202, São Paulo, Brazil) at 26 °C for promastigotes and 32 °C for axenic amastigotes for 72 h. Then, 10 μL of MTT (5 mg/mL) was added to each well to colorimetrically evaluate growth inhibition. The plate was subsequently incubated for a further 4 h, followed by adding 50 μL of 10% sodium dodecyl sulfate solution for […] before the optical density of the culture was read on a microplate spectrophotometer reader. The reading was taken at the test and reference wavelengths of 540 and 620 nm using a microplate spectrophotometer. The negative control consisted of 0.2% […] with BNP, considered to be 100% viable.

RAW 264.7 macrophages = experiment: Cytotoxicity in macrophages (MTT); format: cell-based; conditions: 48 h
Description: as §1
First, 100 μL DMEM medium complete with 1 × 10^6 macrophages (RAW 264.7) was added to each well of a 96-well plate. RAW 264.7 macrophages were obtain from ATCC: code TIB-71^TM. The plate was placed in an incubator (37 °C, 5% CO2) (Sanyo, model COM-15A, Sanyo Electric Co., Osaka, Japan) for 4 h to promote cell adhesion. After this period, two washes were conducted with previously heated DMEM medium (37 °C) to remove non-adhered cells. 2-amino-thiophene and 2-amino-selenophene derivatives were added to wells at serial concentrations of 400 to 25 µM and then incubated for 48 h. Next, 10 μL of MTT at a […] of 5 mg/mL were added to each well and incubated for 4 h. The plate was then shaken for 30 min and read at the test and reference wavelengths of 550 and 620 nm, respectively, in a plate reader. DMEM medium supplemented with 0.5% DMSO was used as a negative control and considered as 100% macrophage viability. The selectivity index for each treatment was calculated as the ratio between the concentration of cytotoxicity of RAW 264.7 macrophages (CC50) and the 50% inhibitory concentration (IC50) or effective concentration (EC50), as measured for the different evolutionary forms of L. amazonensis.

[2] = tested on: promastigotes of L. amazonensis; conditions: L. amazonensis promastigotes; previously published; read-out: IC50 Promastigotes; cited from earlier work
[3] = tested on: axenic amastigotes of L. amazonensis; conditions: L. amazonensis amastigotes, cited from earlier work
L. amazonensis = conditions: Swiss mice, oral, 50 and 200 mg/kg, 7 weeks; versus meglumine antimoniate i.p. 100 mg/kg; cited from earlier work

Compound	IC50 [1]	IC50 ([1]; listed as Anfotericina B)	CC50 (RAW 264.7 macrophages)	CC50 (RAW 264.7 macrophages; listed as Anfotericina B)	IC50 [2]	IC50 ([3]; previously published, read-out: IC50 Amastigotes)	EC50 ([3]; read-out: EC50 against amastigotes)	paw lesion size and parasite load in the reservoirs (L. amazonensis)
C[C@@H]1[C@H](O)[C@@H](C)/C=C/C=C/C=C/C=C/C=C/C=C/C=C/[C@H](O[C@@H]2O[C@H](C)[C@@H](O)[C@H](N)[C@@H]2O)C[C@@H]2O[C@](O)(C[C@@H](O)C[C@@H](O)[C@H](O)CC[C@@H](O)C[C@@H](O)CC(=O)O[C@H]1C)C[C@H](O)[C@H]2C(=O)O [Amphotericin B, reference compound]	170 nM and 300 nM	360 nM	180 nM and 300 nM	380 nM	–	–	–	–
N#Cc1c(/N=C/c2c[nH]c3ccc(Br)cc23)sc2c1CCCC2 [SB-83]	–	–	–	–	3300 nM and 3370 nM	18500 nM	18500 nM	more effective than meglumine antimoniate
